Results reported in US20060240494A1, “Biocidal molecules, macromolecular targets and methods of production and use” (priority 2000, published 2006).
Residues, ends and D or L forms follow the SMILES beside them. *: point of attachment. 5FAM = O=C1OC2(c3ccc(O)cc3Oc3cc(O)ccc32)c2ccc(C(=O)*)cc21

Tests used:
E. coli DnaK aa596-637 = E. coli DnaK aa596-637 (Escherichia coli, UniProt P0A6Y8); experiment: Fluorescence polarization with DnaK extreme C-terminus fragment; type: binding; details: PBS; qualitative
Hsp70 = Hsp70 (Homo sapiens, UniProt P0DMV8); experiment: Fluorescence polarization binding of fluorescein-labeled peptides to Hsp70; design: purchased; host or cells: E. coli; details: Hsp70 at both concentrations (4 μM and 2 μM); peptide 1 nM; blank about 62
Description: (§1) All solid-phase assays that separate the bound form of the ligand from the free form are suspect. Therefore, in the next step, the binding of labeled peptides to the heat shock/chaperone proteins and to LPS was observed by fluorescence polarization.
(§2) In one example, three fluorescein-labeled peptides were synthesized with the fluorescein label attached at the N-terminus of the peptide: fluorescein-K-pyrrhocoricin (N-F-pyrrhocoricin), fluorescein-K-drosocin (unglycosylated; N-F-drosocin), and fluorescein-K-apidaecin (N-F-apidaecin). A C-terminally labeled peptide was also made, i.e., pyrrhocoricin-K-fluorescein (C-F-pyrrhocoricin). The C-terminally labeled pyrrhocoricin peptide (C-F-pyrrhocoricin) was made to investigate the possibility of spatial separation of the active sites. From earlier experiments, it was clear that pyrrhocoricin and drosocin bind to the receptor(s) with their two terminal domains [Hoffmann, R. et al, (1999) Biochim. Biophys. Acta, 1426: 459-467; McManus, A. et al, (1999) Biochemistry, 38: 705-714].
(§3) During fluorescence polarization, positive signals are detected only when the free rotation of the fluorescein attached to one of the interacting partners is slowed down due to binding to the other partner when this label is not exceedingly far from the site of interaction. […]

DnaK = DnaK (Escherichia coli, UniProt P0A6Y8); experiment: Fluorescence polarization binding of fluorescein-labeled peptides to DnaK; design: purchased; host or cells: E. coli; species or system E. coli; details: for minipolarization value: peptide 1 nM, blank about 62
Description: (§4) All solid-phase assays that separate the bound form of the ligand from the free form are suspect.
(§5) In one example, three fluorescein-labeled peptides were synthesized with the fluorescein label attached at the N-terminus of the peptide: fluorescein-K-pyrrhocoricin (N-F-pyrrhocoricin), fluorescein-K-drosocin (unglycosylated; N-F-drosocin), and fluorescein-K-apidaecin (N-F-apidaecin). […] Biophys. Acta, 1426: 459-467; McManus, A. et al, (1999) Biochemistry, 38: 705-714].
(§6) During fluorescence polarization, positive signals are detected only when the free rotation of the fluorescein attached to one of the interacting partners is slowed down due to binding to the other partner when this label is not exceedingly far from the site of interaction. If the label is placed too far from the binding site, the flexibility of peptide-like structures will resume free rotation of the fluorescein moiety, resulting in no polarization anisotropy, even if positive binding occurs. As a negative control fluorescein-labeled peptide, a fragment of the […] of human tubulin was used [Otvos, L., Jr. et al, (1998) Protein and Peptide Lett., 5: 207-213].
The same heat shock proteins and LPS preparations were used as in the Western-blotting, except DnaJ was not studied. Ras was used as a negative control protein. The fluorescein-K-pyrrhocoricin—DnaK binding study was repeated with an additional DnaK preparation, purchased from another source. The labeled peptides were used in fixed 1 nM concentrations. […] The initial concentration of LPS was set to 0.5 mg/ml, and dilutions were made until 0.031 mg/ml.

[1] = target: E. coli DnaK fragment aa583-615 (D-E helix hinge) (Escherichia coli, UniProt P0A6Y8); experiment: Fluorescence polarization with synthetic DnaK fragment aa583-615; type: binding; details: Tris HCl at pH 8.0; labeled peptide 1 nM
Experimental: The binding of the synthetic DnaK fragments to their fluorescein-labeled pyrrhocoricin counterparts was also assessed in solution, by fluorescence polarization [Lundblad, J. R. et al, (1996) Mol. Endocrinol. 10: 607-612]. For these experiments, the unlabeled peptides were serially diluted in PBS (pH 7.4) or 0.1 M Tris-HCl (pH 8.0) containing 0.1 M ethylene-diamine-tetraacetic acid (EDTA) in 50 μL final volume in 6×50 mm disposable glass borosilicate tubes. The fluoresceinated peptides were added to each tube in a 50 μL aliquot to a final concentration of 1 nM and tubes were incubated at 37° C. for 5 minutes. The extent of fluorescence anisotropy was measured on a Beacon 2000 fluorescence polarization instrument (PanVera, Madison, Wis.) and calculated as millipolarization values. The filters used were 485 nm excitation and 535 nm emission with 3 nm band width. Non-linear curve fitting was done by using a dose-response logistical transition [y=a0+a1/(1+x/a2)^a^3] and the Levenberg-Marquardt Algorithm within the SlideWrite software package. The provided Kd value (a2 coefficient) was calculated by the program.
To quantitatively characterize the pyrrhocoricin—D-E helix interaction, the complete binding curves were measured for E. coli DnaK fragments aa583-615 and aa588-615, both of SEQ ID NO: 10.

Ras = experiment: Fluorescence polarization binding of fluorescein-labeled peptides to Ras (negative control protein); details: Ras at both concentrations (4 μM and 2 μM); peptide 1 nM; blank about 62
Description: as §1, §2, §3

GroES = target: T1, GroES (Escherichia coli, UniProt P0A6F9); experiment: Fluorescence polarization binding of fluorescein-labeled peptides to GroES; details: GroES at both concentrations (4 μM and 2 μM); peptide 1 nM; blank about 62
T1 construct: purchased; host or cells: E. coli
Description: as §1, §2, §3

[2] = target: E. coli DnaK fragment aa397-439 (conventional peptide binding pocket) (Escherichia coli, UniProt P0A6Y8); experiment: Fluorescence polarization with DnaK fragment aa397-439; details: PBS; qualitative
[3] = target: blocked E. coli DnaK fragment aa591-615 (Escherichia coli, UniProt P0A6Y8); type: binding; details: PBS; qualitative
Hsp60 = target: T2, Hsp60 (Homo sapiens, UniProt P10809); experiment: Fluorescence polarization binding of fluorescein-labeled peptides to Hsp60; details: peptide 1 nM, blank about 62
T2 construct: purchased; host or cells: E. coli
Description: as §1, §2, §3

[4] = target: E. coli DnaK aa513-551 (A-B helix fragment) (Escherichia coli, UniProt P0A6Y8); experiment: Fluorescence polarization with DnaK A-B helix fragment; type: binding
[5] = target: T3, S. aureus DnaK 554-585 (D-E helix fragment) (Staphylococcus aureus, UniProt P45554); experiment: Fluorescence polarization with S. aureus DnaK D-E helix fragment; type: binding
T3 sequence (P45554 554-585 limits assumed): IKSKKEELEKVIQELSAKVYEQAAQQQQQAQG

GroEL = GroEL (Escherichia coli, UniProt P0A6F5); experiment: Fluorescence polarization binding of fluorescein-labeled peptides to GroEL; design: purchased; host or cells: E. coli; species or system E. coli; details: peptide 1 nM, blank about 62
Description: as §4, §5, §6
The same heat shock proteins and LPS preparations were used as in the Western-blotting, except DnaJ was not studied. Ras was used as a negative control protein. […]

GrpE = target: T4, GrpE (Escherichia coli, UniProt P09372); experiment: Fluorescence polarization binding of fluorescein-labeled peptides to GrpE; details: GrpE at both concentrations (4 μM and 2 μM); peptide 1 nM; blank about 62
T4 construct: purchased; host or cells: E. coli
Description: as §1, §2, §3

DnaK, sequence (P0A6Y8 whole entry): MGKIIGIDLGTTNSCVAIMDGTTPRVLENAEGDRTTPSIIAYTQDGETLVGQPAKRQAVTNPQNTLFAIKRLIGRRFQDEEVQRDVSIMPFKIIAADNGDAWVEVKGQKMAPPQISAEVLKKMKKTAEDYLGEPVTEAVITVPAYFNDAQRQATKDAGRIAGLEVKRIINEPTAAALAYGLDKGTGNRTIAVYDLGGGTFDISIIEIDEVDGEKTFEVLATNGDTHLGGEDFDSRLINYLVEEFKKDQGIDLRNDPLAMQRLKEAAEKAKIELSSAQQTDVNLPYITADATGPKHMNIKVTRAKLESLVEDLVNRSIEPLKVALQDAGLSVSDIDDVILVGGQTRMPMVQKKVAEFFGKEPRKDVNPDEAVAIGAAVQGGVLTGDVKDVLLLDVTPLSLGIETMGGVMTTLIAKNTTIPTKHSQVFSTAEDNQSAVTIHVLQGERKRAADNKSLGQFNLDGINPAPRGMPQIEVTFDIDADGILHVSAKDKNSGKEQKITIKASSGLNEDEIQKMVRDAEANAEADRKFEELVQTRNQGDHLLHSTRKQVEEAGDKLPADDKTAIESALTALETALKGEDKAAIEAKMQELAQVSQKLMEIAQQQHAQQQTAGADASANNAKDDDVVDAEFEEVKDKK
T2 sequence (P10809 27-573): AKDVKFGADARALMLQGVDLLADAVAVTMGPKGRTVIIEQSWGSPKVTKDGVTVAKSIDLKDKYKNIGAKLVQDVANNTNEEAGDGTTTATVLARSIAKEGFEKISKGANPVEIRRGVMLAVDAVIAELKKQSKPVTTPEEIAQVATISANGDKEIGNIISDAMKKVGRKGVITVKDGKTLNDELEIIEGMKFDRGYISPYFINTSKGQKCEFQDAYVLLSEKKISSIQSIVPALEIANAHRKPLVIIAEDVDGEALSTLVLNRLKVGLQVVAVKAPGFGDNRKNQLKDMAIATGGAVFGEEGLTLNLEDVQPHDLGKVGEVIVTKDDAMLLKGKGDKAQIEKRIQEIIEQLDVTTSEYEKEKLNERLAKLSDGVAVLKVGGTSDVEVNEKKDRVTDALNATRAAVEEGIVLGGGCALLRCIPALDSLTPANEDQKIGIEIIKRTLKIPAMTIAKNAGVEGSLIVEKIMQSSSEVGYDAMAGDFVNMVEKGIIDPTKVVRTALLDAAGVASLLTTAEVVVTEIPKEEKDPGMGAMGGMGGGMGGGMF
E. coli DnaK aa513-551 (A-B helix fragment), sequence (P0A6Y8 514-552 limits assumed): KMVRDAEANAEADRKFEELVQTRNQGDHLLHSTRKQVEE
GroEL, sequence (P0A6F5 2-548 limits assumed): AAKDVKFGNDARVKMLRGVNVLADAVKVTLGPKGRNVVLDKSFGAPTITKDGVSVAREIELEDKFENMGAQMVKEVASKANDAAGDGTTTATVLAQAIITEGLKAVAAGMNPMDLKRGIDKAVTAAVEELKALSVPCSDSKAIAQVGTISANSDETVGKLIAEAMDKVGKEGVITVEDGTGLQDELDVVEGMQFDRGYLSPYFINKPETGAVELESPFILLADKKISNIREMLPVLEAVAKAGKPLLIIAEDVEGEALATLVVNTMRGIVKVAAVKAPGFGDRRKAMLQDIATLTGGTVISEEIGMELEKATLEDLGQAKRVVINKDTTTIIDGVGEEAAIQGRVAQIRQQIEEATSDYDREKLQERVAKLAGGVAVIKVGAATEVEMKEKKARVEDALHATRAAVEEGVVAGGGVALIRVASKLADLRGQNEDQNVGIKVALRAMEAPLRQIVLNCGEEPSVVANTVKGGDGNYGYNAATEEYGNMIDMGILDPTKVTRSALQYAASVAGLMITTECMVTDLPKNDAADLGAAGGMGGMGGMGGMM
blocked E. coli DnaK fragment aa591-615, sequence (P0A6Y8 592-616 limits assumed): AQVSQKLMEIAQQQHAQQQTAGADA
E. coli DnaK fragment aa583-615 (D-E helix hinge), sequence (P0A6Y8 584-616): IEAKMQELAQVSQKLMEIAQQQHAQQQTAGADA
E. coli DnaK fragment aa397-439 (conventional peptide binding pocket), sequence (P0A6Y8 397-439): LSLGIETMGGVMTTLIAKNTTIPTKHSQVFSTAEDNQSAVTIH
T4 sequence (P09372 whole entry): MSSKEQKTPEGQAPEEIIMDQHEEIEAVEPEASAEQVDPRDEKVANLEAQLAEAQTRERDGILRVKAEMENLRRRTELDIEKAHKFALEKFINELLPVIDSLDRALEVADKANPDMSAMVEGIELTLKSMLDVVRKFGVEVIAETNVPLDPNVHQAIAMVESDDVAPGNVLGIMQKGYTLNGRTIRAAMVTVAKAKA
T1 sequence (P0A6F9 whole entry): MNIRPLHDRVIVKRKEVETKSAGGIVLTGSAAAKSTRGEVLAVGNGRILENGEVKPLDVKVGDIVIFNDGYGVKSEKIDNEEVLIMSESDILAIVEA
E. coli DnaK aa596-637, sequence (P0A6Y8 597-638): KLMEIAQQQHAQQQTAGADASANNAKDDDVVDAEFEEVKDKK
Hsp70, sequence (P0DMV8 whole entry): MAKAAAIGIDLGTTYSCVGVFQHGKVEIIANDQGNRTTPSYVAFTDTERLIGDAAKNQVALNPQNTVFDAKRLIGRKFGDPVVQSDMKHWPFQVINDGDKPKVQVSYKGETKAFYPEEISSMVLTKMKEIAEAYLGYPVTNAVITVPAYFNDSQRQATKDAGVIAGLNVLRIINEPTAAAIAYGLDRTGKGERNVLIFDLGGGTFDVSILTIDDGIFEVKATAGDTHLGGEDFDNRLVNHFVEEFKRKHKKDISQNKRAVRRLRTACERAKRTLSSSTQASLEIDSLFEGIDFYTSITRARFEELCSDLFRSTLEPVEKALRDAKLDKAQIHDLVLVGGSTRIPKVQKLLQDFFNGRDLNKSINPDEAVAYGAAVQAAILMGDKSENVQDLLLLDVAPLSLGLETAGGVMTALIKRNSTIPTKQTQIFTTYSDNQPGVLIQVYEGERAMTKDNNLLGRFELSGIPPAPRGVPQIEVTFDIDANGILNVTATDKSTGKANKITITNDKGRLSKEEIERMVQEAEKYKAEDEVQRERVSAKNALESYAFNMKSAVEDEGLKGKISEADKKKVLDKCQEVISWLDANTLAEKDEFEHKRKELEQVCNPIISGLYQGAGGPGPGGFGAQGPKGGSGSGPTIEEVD

In the case of `CC[C@H](C)[C@H](NC(=O)[C@@H]1CCCN1C(=O)[C@H](CCCNC(=N)N)NC(=O)[C@@H]1CCCN1C(=O)[C@@H]1CCCN1C(=O)[C@@H](NC(=O)[C@@H]1CCCN1C(=O)[C@H](CCCNC(=N)N)NC(=O)[C@@H]1CCCN1C(=O)[C@H](CC(C)C)NC(=O)[C@H](Cc1ccc(O)cc1)NC(=O)[C@H](CO)NC(=O)CNC(=O)[C@H](CCCCN)NC(=O)[C@H](CC(=O)O)NC(=O)[C@@H](NC(=O)[C@H](CCCCN)NC(=O)c1ccc2c(c1)C(=O)OC21c2ccc(O)cc2Oc2cc(O)ccc21)C(C)C)[C@@H](C)O)C(=O)N[C@@H](Cc1ccc(O)cc1)C(=O)N[C@@H](CC(N)=O)C(=O)N[C@@H](CCCNC(=N)N)C(=O)N[C@@H](CC(N)=O)C(=O)O` [N—F-pyrrhocoricin] (5FAM-KVDKGSYLPRPTPPRPIYNRN-OH; C-terminus assumed), the “binding to E. coli extreme C-terminus fragment” value (E. coli DnaK aa596-637) is reported as “No interaction above the level of the negative control”, the minipolarization value (Hsp70) is reported as “under 62” and the “millipolarization values higher over the background” value (DnaK; 1 nM peptide bound to DnaK) is reported as 50%. The minipolarization value (DnaK; 2 μM DnaK) was “about 95”, the minipolarization value (DnaK; 4 μM DnaK) was “about 100” and the “binding to E. coli D-E helix hinge region aa583-615” value [1] was “concentration-dependent binding”. The minipolarization value (Ras) was “under 62”, the minipolarization value (GroES) was “under 62” and the “binding to fragment aa397-439” value [2] was “weakly”. For the same compound, the “binding to blocked E. coli DnaK fragment aa591-615” value [3] was “bound strongly”, the minipolarization value (Hsp60; 2 μM Hsp60) was “about 62” and the minipolarization value (Hsp60; 4 μM Hsp60) was “about 90”. For the same compound, the “binding to E. coli A-B helix fragment” value ([4]; PBS, qualitative) was “No interaction above the level of the negative control”, the “binding to E. coli A-B helix fragment” value ([4]; Tris HCl at pH 8.0) was “did not bind” and the “binding to D-E helix fragment of S. aureus DnaK” value ([5]; PBS, qualitative) was “No interaction above the level of the negative control”. For the same compound, the “binding to S. aureus D-E helix fragment” value ([5]; Tris HCl at pH 8.0) was “did not bind”, the minipolarization value (GroEL; 2 μM Gro EL) was “about 85” and the minipolarization value (GroEL; 4 μM Gro EL) was “over 100”. For the same compound, the minipolarization value (GrpE) was “under 62”.
